The supplement of paper PMC11208160

Experiment: recombinant UMI read abundance after kanamycin selection (control-corrected) (log10(CPM+1)); higher = more efficient recombination; extreme values may be limits of the assay; sequences stand for … in AGTGCAGAGAAAATCGGCCAGTTTTCTCTGCCTGCAGTCCGCATGCCGTGGGACCCCTTGGGTTCTAACCTGTTGCCTAGATTTATGCAGCGGACTGCCTTTCTCCCAAAGTGATAAACCGG…AGGTTGGTTTCACT; site = the 11-nt donor
Outline: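 Sequencing read counts were converted to CPM, averaged over two replicates and scaled by control-derived factors. Results are given as log10(CPM+1). The reads covered the donor–target junction of recombinant UMIs from a pooled Escherichia coli screen of donor and donor-binding-loop pairs for the IS621 bridge recombinase.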
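Note: IS621 bridge recombinase in Escherichia coli cells against a fixed T5 target plasmid.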

Sequence	recombinant UMI read abundance (log10)
ATATCTACATGGACCGGTTTTCCCGGTAATCCGTATTTGTG (site ATATCTACTCA)	0.895
ATATCTGCATGGACCGGTTTTCCCGGTAATCCGTATTTGGC (site ATATCTGCTGC)	0.5
ATATGAACATGGACCGGTTTTCCCGGTAATCCGTATTTGTC (site ATATGAACTGA)	2.77
ATATGTCCATGGACCGGTTTTCCCGGTAATCCGTATTTGTC (site ATATGTCCTGA)	0.623
ATATTGTCATGGACCGGTTTTCCCGGTAATCCGTATTTGTC (site ATATTGTCTGA)	3.25
ATCAAGGCATGGACCGGTTTTCCCGGTAATCCGTATTTGCG (site ATCAAGGCTCG)	1.32
ATCAATACATGGACCGGTTTTCCCGGTAATCCGTATTTGAC (site ATCAATACTGT)	1.74
ATCAATACATGGACCGGTTTTCCCGGTAATCCGTATTTGAC (site ATCCATACTGT)	0
ATCAATACATGGACCGGTTTTCCCGGTAATCCGTATTTGAC (site ATCGATACTGT)	2.2
ATCAATACATGGACCGGTTTTCCCGGTAATCCGTATTTGAC (site ATCTATACTGT)	0
ATCAGAACATGGACCGGTTTTCCCGGTAATCCGTATTTGAT (site ATCAGAACTAT)	1.88
ATCAGAGCATGGACCGGTTTTCCCGGTAATCCGTATTTGTC (site ATCAGAGCTGA)	1.82
ATCATGGCATGGACCGGTTTTCCCGGTAATCCGTATTTGCA (site ATCATGGCTTG)	2.21
ATCCAAGCATGGACCGGTTTTCCCGGTAATCCGTATTTGTG (site ATCCAAGCTCA)	1.51
ATCCAAGCATGGACCGGTTTTCCCGGTAATCCGTATTTGTG (site ATCCAAGCTCC)	0.0133
ATCCAAGCATGGACCGGTTTTCCCGGTAATCCGTATTTGTG (site ATCCAAGCTCG)	1.13
ATCCAAGCATGGACCGGTTTTCCCGGTAATCCGTATTTGTG (site ATCCAAGCTCT)	0.581
ATCCCAGCATGGACCGGTTTTCCCGGTAATCCGTATTTGAG (site ATCCAAGCTCT)	0.00798
ATCCCAGCATGGACCGGTTTTCCCGGTAATCCGTATTTGAG (site ATCCCAGCTCT)	0.952

Sequence	recombinant UMI read abundance (log10)
ATCCCAGCATGGACCGGTTTTCCCGGTAATCCGTATTTGAG (site ATCCGAGCTCT)	0.00574
ATCCCAGCATGGACCGGTTTTCCCGGTAATCCGTATTTGAG (site ATCCTAGCTCT)	0
ATCCCTACATGGACCGGTTTTCCCGGTAATCCGTATTTGAG (site ATCCCTACTCT)	0.465
ATCCCTACATGGACCGGTTTTCCCGGTAATCCGTATTTGAG (site CTCCCTACTCT)	0.196
ATCCCTACATGGACCGGTTTTCCCGGTAATCCGTATTTGAG (site GTCCCTACTCT)	0.0127
ATCCCTACATGGACCGGTTTTCCCGGTAATCCGTATTTGAG (site TTCCCTACTCT)	0.854
ATCCGCTCATGGACCGGTTTTCCCGGTAATCCGTATTTGCG (site ATCCGCTCTCG)	1.19
ATCCTAGCATGGACCGGTTTTCCCGGTAATCCGTATTTGAG (site ATCCAAGCTCT)	0.122
ATCCTAGCATGGACCGGTTTTCCCGGTAATCCGTATTTGAG (site ATCCCAGCTCT)	0.0117
ATCCTAGCATGGACCGGTTTTCCCGGTAATCCGTATTTGAG (site ATCCGAGCTCT)	0.0408
ATCCTAGCATGGACCGGTTTTCCCGGTAATCCGTATTTGAG (site ATCCTAGCTCT)	0.651
ATCCTAGCATGGACCGGTTTTCCCGGTAATCCGTATTTGTT (site AACCTAGCTAA)	0.00989
ATCCTAGCATGGACCGGTTTTCCCGGTAATCCGTATTTGTT (site ACCCTAGCTAA)	0.0137
ATCCTAGCATGGACCGGTTTTCCCGGTAATCCGTATTTGTT (site AGCCTAGCTAA)	0.0169
ATCCTAGCATGGACCGGTTTTCCCGGTAATCCGTATTTGTT (site ATCCTAGCTAA)	0.0177
ATCCTTGCATGGACCGGTTTTCCCGGTAATCCGTATTTGAT (site ATCCTTGCTAT)	2.19
ATCGACCCATGGACCGGTTTTCCCGGTAATCCGTATTTGGT (site ATCGACCCTAC)	0
ATCGACCCATGGACCGGTTTTCCCGGTAATCCGTATTTGTG (site ATCGACCCTCA)	0.0241
